{
  "source": "patent US4243668A",
  "about": "“Octahydro-1H-benzo[4,5]furo[3,2-e]-isoquinoline analgesic and narcotic antagonistic compounds” (priority 1979, dated 1981)",
  "key": {"[1]": {"system": "induction of Straub tail in mice by a highly addicting agonist such as morphine", "test": "anti-Straub tail test, antagonism of morphine-induced Straub tail (narcotic antagonism)", "format": "in vivo, Female CF1 S mice", "settings": "Mus musculus, sc, mice, s.c.; vs morphine sulfate 30 mg/kg i.p.; read-out: EFFECT ED50 subcutaneous(s.c.) Anti-Straub Tail"}, "[2]": {"system": "pain induced by phenylquinone", "test": "phenylquinone writhing test (oral anti-PQW), analgesic activity", "format": "in vivo, female white mice", "settings": "Mus musculus, po, mice, oral, phenylquinone writhing, ED50; read-out: EFFECT ED50 Oral Anti-PQW", "method": "A standard procedure for detecting and comparing the analgesic activity of compounds in this series for which there is good correlation with human efficacy is the standard phenylquinone writhing test modified from Siegmund, et al., Proc. Soc. Exp. Biol. Med., 95, 729 (1957). A test compound suspended in 1% methocel® was given orally to fasted (17-21 hours) female white mice, 5-20 animals per double blind test. Aqueous (0.01% phenyl-p-benzoquinone) phenylquinone was injected intraperitoneally at 24 minutes later using 0.20 ml per mouse. […] The effective analgesic dose for 50% of the mice (ED50) was calculated by the moving average method of Thompson, W. R., Bact. Rev., 11, 115-145 (1947)."}, "Straub tail": {"system": "Straub tail", "test": "Straub tail reaction (oral), narcotic agonist effect", "format": "in vivo, CF1 S female mice", "settings": "Mus musculus, mice", "method": "Narcotic analgesics produce in mice an erection and arching of the tail (90° or more) which is referable to spinal cord stimulation. This Straub tail reaction is not produced by other analgesics, including the narcotic antagonists.\nThe method used was modified from Shemano, I., and Wendel, H., Tox. Appl. Pharm., 6, 334-9 (1964). CF1 S female mice (18-21 g), 10-20 mice per dose, were intubated with log scaled doses of analgesic in 1% aqueous methylcellulose. A positive Straub tail response was recorded if a tail was erected 90° or more for 5 seconds at any time within 24 minutes after dosing. A quantal Straub tail ED50 was calculated by the moving average method [Thompson, W. R., Bact. Rev., 11, 115-145 (1947)]."}, "[3]": {"settings": "cited from earlier work; for intrinsic analgesic activity, in words: background statement"}, "[4]": {"system": "induction of Straub tail in mice by a highly addicting agonist such as morphine", "settings": "Blumberg et al. 1968; cited from earlier work"}},
  "data": [
    {"smiles": "CCCCCCN1CCC23c4cccc(OC)c4OC2CCCC3C1", "note": "(centres unmarked) [Example 27]", "values": [
      {"measurement": "ED50", "setting": "[1]", "value": "> 27", "unit": "mg/kg"},
      {"measurement": "ED50", "setting": "[2]", "value": 7, "unit": "mg/kg"},
      {"measurement": "ED50", "setting": "Straub tail", "value": 25, "unit": "mg/kg"}
    ]},
    {"smiles": "COc1cccc2c1OC1CCCC3CN(CC(C)C)CCC231", "note": "(centres unmarked) [Example 31]", "values": [
      {"measurement": "ED50", "setting": "[1]", "value": 0.24, "unit": "mg/kg"},
      {"measurement": "ED50", "setting": "[2]", "value": 94, "unit": "mg/kg"},
      {"measurement": "ED50", "setting": "Straub tail", "value": "> 135", "unit": "mg/kg"}
    ]},
    {"smiles": "CC(C)CN1CCC23c4cccc(O)c4OC2CCCC3C1", "note": "(centres unmarked) [Example 32]", "values": [
      {"measurement": "ED50", "setting": "[1]", "value": 0.03, "unit": "mg/kg"},
      {"measurement": "ED50", "setting": "[2]", "value": 63, "unit": "mg/kg"},
      {"measurement": "ED50", "setting": "Straub tail", "value": "> 135", "unit": "mg/kg"}
    ]},
    {"smiles": "Oc1cccc2c1OC1CCCC3CN(CC4CCCCC4)CCC231", "note": "(centres unmarked) [Example 34]", "values": [
      {"measurement": "ED50", "setting": "[1]", "value": "> 27", "unit": "mg/kg"},
      {"measurement": "ED50", "setting": "[2]", "value": 23, "unit": "mg/kg"},
      {"measurement": "ED50", "setting": "Straub tail", "value": "> 135", "unit": "mg/kg"}
    ]},
    {"smiles": "COc1cccc2c1OC1CCCC3CN(CCc4ccc(C)cc4)CCC231", "note": "(centres unmarked) [Example 35]", "values": [
      {"measurement": "ED50", "setting": "[1]", "value": 56, "unit": "mg/kg"},
      {"measurement": "ED50", "setting": "[2]", "value": 1.7, "unit": "mg/kg"},
      {"measurement": "ED50", "setting": "Straub tail", "value": 52, "unit": "mg/kg"}
    ]},
    {"smiles": "Cc1ccc(CCN2CCC34c5cccc(O)c5OC3CCCC4C2)cc1", "note": "(centres unmarked) [Example 36]", "values": [
      {"measurement": "ED50", "setting": "[1]", "value": "> 81", "unit": "mg/kg"},
      {"measurement": "ED50", "setting": "[2]", "value": 0.67, "unit": "mg/kg"},
      {"measurement": "ED50", "setting": "Straub tail", "value": 39, "unit": "mg/kg"}
    ]},
    {"smiles": "COc1cccc2c1OC1CCCC3CN(Cc4ccco4)CCC231", "note": "(centres unmarked) [Example 37]", "values": [
      {"measurement": "ED50", "setting": "[1]", "value": 12, "unit": "mg/kg"},
      {"measurement": "ED50", "setting": "[2]", "value": 84, "unit": "mg/kg"},
      {"measurement": "ED50", "setting": "Straub tail", "value": "> 135", "unit": "mg/kg"}
    ]},
    {"smiles": "Oc1cccc2c1OC1CCCC3CN(Cc4ccco4)CCC231", "note": "(centres unmarked) [Example 38]", "values": [
      {"measurement": "ED50", "setting": "[1]", "value": 7.2, "unit": "mg/kg"},
      {"measurement": "ED50", "setting": "[2]", "value": 108, "unit": "mg/kg"},
      {"measurement": "ED50", "setting": "Straub tail", "value": "> 135", "unit": "mg/kg"}
    ]},
    {"smiles": "COc1cccc2c1OC1CCCC3CN(Cc4cccs4)CCC231", "note": "(centres unmarked) [Example 41]", "values": [
      {"measurement": "ED50", "setting": "[1]", "value": "> 27", "unit": "mg/kg"},
      {"measurement": "ED50", "setting": "[2]", "value": 48, "unit": "mg/kg"},
      {"measurement": "ED50", "setting": "Straub tail", "value": "> 135", "unit": "mg/kg"}
    ]},
    {"smiles": "CC(C)=CCN1CCC2(C)c3cc(O)ccc3CC1C2C", "note": "(centres unmarked) [Pentazocine, reference compound]", "values": [
      {"measurement": "ED50", "setting": "[1]", "value": 4, "unit": "mg/kg"},
      {"measurement": "ED50", "setting": "[2]", "value": 56, "unit": "mg/kg"},
      {"measurement": "ED50", "setting": "Straub tail", "value": "> 135", "unit": "mg/kg"}
    ]},
    {"smiles": "C=CCN1CC[C@]23CCCC[C@H]2[C@H]1Cc1ccc(O)cc13", "note": "[levallorphan]", "values": [
      {"measurement": "intrinsic analgesic activity, in words", "setting": "[3]", "value": "some analgesic effects"}
    ]},
    {"smiles": "C=CCN1CC[C@]23c4c5ccc(O)c4O[C@H]2[C@@H](O)C=C[C@H]3[C@H]1C5", "note": "[nalorphine]", "values": [
      {"measurement": "intrinsic analgesic activity, in words", "setting": "[3]", "value": "some analgesic effects"},
      {"measurement": "analgetic properties in man, in words", "setting": "[3]; in man, Lasagna and Beecher 1954", "value": "analgetic properties in man"},
      {"measurement": "prevention of morphine-induced Straub tail, in words", "setting": "[4]", "value": "prevent the induction of Straub tail in mice"}
    ]},
    {"smiles": "C=CCN1CC[C@]23c4c5ccc(O)c4O[C@H]2C(=O)CC[C@@]3(O)[C@H]1C5", "note": "[naloxone]", "values": [
      {"measurement": "prevention of morphine-induced Straub tail, in words", "setting": "[4]", "value": "prevent the induction of Straub tail in mice"}
    ]}
  ]
}
